Measured values as given in patent US20100324284A1, “PYRROLOPYRIMIDINE DERIVATIVE AS P13K INHIBITOR AND USE THEREOF” (CHUGAI SEIYAKU KABUSHIKI KAISHA, priority 2008, published 2010).

Columns and labels:
[1] = test system: human colon cancer cell line HCT116; experiment: Cell proliferation inhibitory activity, HCT116 (Cell Counting Kit-8); type: cell-based; conditions: HCT-116, 96 h, HCT116, 4 days
Method: (§1) The cell proliferation inhibitory activity was measured for compounds of the present invention represented by formula (I). Cancer cell proliferation inhibitory activity was measured using the Cell Counting Kit-8 (Dojindo). 2000 cells each of human colon cancer cell line HCT116 purchased from the American Type Culture Collection (Virginia, USA) were seeded into each well of a 96-well culture plate followed by the addition of a predetermined concentration of the compounds and cultivating in a 5% CO2 environment at 37° C. for 4 days. On the fourth day of cultivating, the Cell Counting Kit-8 solution was added and absorbance (measuring wavelength: 450 nm, reference wavelength: 615 nm) was measured in accordance with the protocol provided with the kit.

[2] = test system: human prostate cancer cell line PC3; experiment: Cell proliferation inhibitory activity, PC3 (Cell Counting Kit-8); type: cell-based; conditions: PC-3, 96 h, PC3, 4 days
Method: as §1
(§2) Cancer cell proliferation inhibitory activity was also measured for human lung cancer cell line NCI-H460 and human prostate cancer cell line PC3 purchased from the American Type Culture Collection.

[3] = test system: human lung cancer cell line NCI-H460; experiment: Cell proliferation inhibitory activity, NCI-H460 (Cell Counting Kit-8); type: cell-based; conditions: 96 h, NCI-H460, 4 days, read-out: Cell proliferation inhibitory activity (IC50, μM) Non-small cell cancer (NCIH460)
Method: as §1, §2

[4] = molecular target: human PI3K (p110α/p85α) (Homo sapiens, UniProt P42336); experiment: Measurement of PI3K inhibitory activity (AlphaScreen GST Detection Kit); type: biochemical; conditions: 10 μM ATP, 4 μM PI(4,5)P2, read-out: Enzyme inhibitory activity (IC50, μM) PI3K α
Chain of human PI3K (p110α/p85α) (P42336 whole entry): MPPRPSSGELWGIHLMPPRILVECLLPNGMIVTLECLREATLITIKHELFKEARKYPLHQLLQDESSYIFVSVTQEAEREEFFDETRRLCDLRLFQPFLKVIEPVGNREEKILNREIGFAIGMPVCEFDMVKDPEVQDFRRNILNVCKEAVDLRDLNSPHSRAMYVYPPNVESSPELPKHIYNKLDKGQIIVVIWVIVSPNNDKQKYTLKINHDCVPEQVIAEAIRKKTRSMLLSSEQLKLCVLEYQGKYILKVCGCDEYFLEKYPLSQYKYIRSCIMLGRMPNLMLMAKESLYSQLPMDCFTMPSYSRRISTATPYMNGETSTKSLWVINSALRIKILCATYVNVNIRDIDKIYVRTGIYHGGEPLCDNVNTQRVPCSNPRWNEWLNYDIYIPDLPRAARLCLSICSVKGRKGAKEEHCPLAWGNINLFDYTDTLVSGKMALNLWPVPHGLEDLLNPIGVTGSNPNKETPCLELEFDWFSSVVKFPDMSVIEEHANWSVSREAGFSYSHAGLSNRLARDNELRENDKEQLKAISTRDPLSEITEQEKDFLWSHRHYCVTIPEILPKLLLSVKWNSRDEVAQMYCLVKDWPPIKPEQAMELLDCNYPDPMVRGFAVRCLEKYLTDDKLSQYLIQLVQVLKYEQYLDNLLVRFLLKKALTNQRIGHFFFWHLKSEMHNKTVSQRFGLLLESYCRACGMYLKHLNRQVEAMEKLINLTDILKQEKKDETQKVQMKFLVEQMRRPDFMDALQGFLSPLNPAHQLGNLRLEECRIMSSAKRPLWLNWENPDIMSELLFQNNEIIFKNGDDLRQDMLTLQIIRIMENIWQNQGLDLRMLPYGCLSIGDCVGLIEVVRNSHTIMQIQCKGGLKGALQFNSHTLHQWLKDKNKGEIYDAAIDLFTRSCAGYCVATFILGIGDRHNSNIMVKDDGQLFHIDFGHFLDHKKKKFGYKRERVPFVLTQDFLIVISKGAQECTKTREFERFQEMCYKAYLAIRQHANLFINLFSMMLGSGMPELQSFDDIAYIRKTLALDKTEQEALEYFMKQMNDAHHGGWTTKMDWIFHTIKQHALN
Chain of human PI3K (p110α/p85α) (P27986 whole entry partner): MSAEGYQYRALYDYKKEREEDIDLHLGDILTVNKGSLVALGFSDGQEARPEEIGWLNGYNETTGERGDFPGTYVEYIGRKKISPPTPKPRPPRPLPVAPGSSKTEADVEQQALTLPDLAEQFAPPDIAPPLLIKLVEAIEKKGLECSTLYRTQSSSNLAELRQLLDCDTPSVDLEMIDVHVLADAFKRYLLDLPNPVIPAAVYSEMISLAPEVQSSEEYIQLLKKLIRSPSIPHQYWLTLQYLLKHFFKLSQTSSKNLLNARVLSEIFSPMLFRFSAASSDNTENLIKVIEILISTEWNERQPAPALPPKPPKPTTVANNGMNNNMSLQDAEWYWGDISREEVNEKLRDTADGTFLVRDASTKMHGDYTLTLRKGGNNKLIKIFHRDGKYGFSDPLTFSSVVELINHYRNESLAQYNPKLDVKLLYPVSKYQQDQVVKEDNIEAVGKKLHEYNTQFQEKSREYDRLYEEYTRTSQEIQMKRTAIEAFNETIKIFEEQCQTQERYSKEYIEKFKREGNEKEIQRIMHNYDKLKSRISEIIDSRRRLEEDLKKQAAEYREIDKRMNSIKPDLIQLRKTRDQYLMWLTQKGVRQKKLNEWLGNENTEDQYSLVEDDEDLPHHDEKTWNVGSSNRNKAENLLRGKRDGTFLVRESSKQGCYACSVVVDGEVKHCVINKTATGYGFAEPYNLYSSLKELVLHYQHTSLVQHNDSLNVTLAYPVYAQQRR
Method: The inhibitory activity of compounds of the present invention represented by formula (I) was measured with human PI3K (p110α/p85α) prepared in a baculovirus expression system using the AlphaScreen GST Detection Kit (Perkin Elmer, Inc.). A predetermined concentration of the compound of the present invention dissolved in dimethylsulfoxide (DMSO) and PI3K were mixed in a 384-well assay plate and after allowing to stand for 20 minutes at room temperature, 4 μM PI(4,5)P2 (Echelon Corporation) and 10 μM ATP (5 mM Hepes, pH 7.5, 2.5 mM MgCl2) were added to initiate the reaction. After reacting at 37° C. for 15 minutes, GST-GRP1 expressed and purified from Escherichia coli, Anti-GST Acceptor Beads (Perkin Elmer, Inc.), Streptavidin Donor Beads (Perkin Elmer, Inc.) and biotin-PI (3,4,5)P3 (Echelon Corporation) (10 mM Tris-HCl pH 7.4, 150 mM NaCl, 7.5 mM EDTA, 1 mM DTT, 0.1% Tween 20) were added, and after allowing to stand for 1 hour at room temperature, light at 520 to 620 nm emitted as a result of exciting with light at 680 nm was measured with the EnVision measuring instrument (Perkin Elmer, Inc.).
Test Example 1 described above can be performed according to “Analytical Biochemistry, 2003, 313, 234-245; Alexander Gray et al”.

Row | Compound | IC50 [1] [µM] | IC50 [2] [µM] | IC50 [3] [µM] | IC50 [4] [µM]
1 | CCN1CCN(c2cc(-n3ccc4c(-c5cnc(N)nc5)nc(N5CCOCC5)nc43)ccn2)CC1 [Compound 1-1, 5-{7-[2-(4-Ethyl-piperazin-1-yl)-pyridin-4-yl]-2-morpholin-4-yl-7H-pyrrolo[2,3-d]pyrimidin-4-yl}-pyrimidin-2-ylamine] | 0.12 | 0.18 | 0.071 | 0.007
2 | Cc1ccc(C(=O)N2CCOCC2)cc1-n1ccc2c(-c3cnc(N)nc3)nc(N3CCOCC3)nc21 [Compound 2-1, {3-[4-(2-amino-pyrimidin-5-yl)-2-morpholin-4-yl-pyrrolo[2,3-d]pyrimidin-7-yl]-4-methyl-phenyl}-morpholin-4-yl-methanone] | 1.45 | 3.18 | 1.25 | 0.093
3 | Nc1ncc(-c2nc(N3CCOCC3)nc3c2ccn3-c2ccc(CN3CCS(=O)(=O)CC3)cc2)cn1 [Compound 3-1, 5-{7-[4-(1,1-dioxo-1λ^6-thiomorpholin-4-ylmethyl)-phenyl]-2-morpholin-4-yl-7H-pyrrolo[2,3-d]pyrimidin-4-yl}-pyrimidin-2-ylamine] | 0.57 | 0.43 | 0.17 | 0.093
4 | CS(=O)(=O)n1ccc2c(-c3cnc(N)nc3)nc(N3CCOCC3)nc21 [Compound 4-1, 5-(7-methanesulfonyl-2-morpholin-4-yl-7H-pyrrolo[2,3-d]pyrimidin-4-yl)-pyrimidin-2-ylamine] | 0.41 | 1.14 | 0.29 | 0.016
